Activity calls are given as the source filed them.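 The calls were made as follows: active = IC50 at or below 10 µM; inactive = IC50 above 10 µM.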

One may read the IC50 as the concentration that gives 50% inhibition.

The subject of this test is HEK293T GAL4DBD-only luciferase reporter, luminescence counterscreen. Briefly: compounds suppressing UAS/Gal4-driven luciferase signal – cell-based, luminescence, HEK293T, empty GAL4DBD, dose response, counter-screen for DAX1 inhibitor project, late-stage follow-up (AID 588821). Background: The purpose of a counterscreen is to sort out artefacts and off-target activity.
Regarding `COc1ccc(OC)c(C(C)NC(=O)c2ccc3c(c2)OCCO3)c1` (centres undefined), the IC50 is > 69.5 µM (inactive).

In the case of `COc1ccc(OC)c(C(C)NC(=O)c2ccccc2C)c1` (centres undefined), the IC50 is > 69.5 µM (inactive). Regarding `COc1ccc(OC)c(C(C)NC(=O)c2ccc(F)cc2)c1` (centres undefined), the IC50 was > 69.5 µM (inactive). The result for `Cn1c(=O)n(C)c2cc(C(=O)Nc3ccc4c(c3)OCO4)ccc21` reads > 69.5 µM (inactive); that for `COc1ccc(OC)c(C(C)NC(=O)c2c(F)cccc2Cl)c1` (centres undefined), > 69.5 µM (inactive). In the case of `O=C(Nc1ccc2c(c1)OCO2)c1ccc(C2SCC(=O)N2Cc2ccccc2)cc1` (centres undefined) it was > 69.5 µM (inactive); in that of `O=C(Nc1ccc2c(c1)OCO2)c1ccc2ccccc2c1`, 0.202 µM; in that of `COc1cccc(C(=O)NC(C)c2cc(OC)ccc2OC)c1` (centres undefined), > 69.5 µM (inactive). In the case of `COc1ccc(OC)c(C(C)NC(=O)c2cccc3ccccc23)c1` (centres undefined) it was > 69.5 µM (inactive); in that of `Cn1c(=O)n(C)c2cc(C(=O)Nc3ccc4c(c3)OCCO4)ccc21`, > 69.5 µM (inactive); in that of `COc1ccc(OC)c(C(C)NC(=O)c2ccccc2)c1` (centres undefined), > 69.5 µM (inactive).

Regarding `COc1ccc(OC)c(C(C)NC(=O)c2ccccc2F)c1` (centres undefined), the IC50 is > 69.5 µM (inactive). The result for `COc1ccc(OC)c(C(C)NC(=O)c2cccc(C)c2)c1` (centres undefined) reads > 69.5 µM (inactive); that for `Cc1occc1C(=O)Nc1ccc2c(c1)OCO2`, > 69.5 µM (inactive); that for `CSc1ccccc1C(=O)Nc1ccc2c(c1)OCCO2`, > 69.5 µM (inactive).

As for `O=C(Nc1ccc2c(c1)OCO2)c1ccc(C2SCC(=O)N2Cc2ccco2)cc1` (centres undefined), the IC50 is > 69.5 µM (inactive).

For the compound `COc1ccc(OC)c(C(C)NC(=O)c2cccc(F)c2)c1` (centres undefined), the IC50 is > 69.5 µM (inactive).

Consider `O=C(Nc1ccc2c(c1)OCO2)c1cccs1`, for which the IC50 is > 69.5 µM (inactive).

Turning to `O=C(Cc1cccs1)Nc1ccc2c(c1)OCO2`, the IC50 is > 69.5 µM (inactive). In the case of `COc1ccc(OC)c(C(C)NC(=O)c2ccccc2Cl)c1` (centres undefined) it was > 69.5 µM (inactive); in that of `CSc1ccccc1C(=O)Nc1ccc2c(c1)OCO2`, > 69.5 µM (inactive). In the case of `COc1ccc(OC)c(C(C)NC(=O)c2ccc(C)cc2)c1` (centres undefined) it was > 69.5 µM (inactive); in that of `COc1ccc(OC)c(C(C)NC(=O)c2ccc(C(C)(C)C)cc2)c1` (centres undefined), > 69.5 µM (inactive). Turning to `COc1ccc(OC)c(C(C)NC(=O)c2ccc(Cl)cc2)c1` (centres undefined), the IC50 is > 69.5 µM (inactive).

The values above are taken from PubChem BioAssay AID588821 (The Scripps Research Institute Molecular Screening Center, 2011).
